# From patent US10981884B2, “Process for the preparation of epoprostenol sodium of enhanced stability” (CHINOIN GYÓGYSZER ÉS VEGYÉSZETI TERMÉKEK GYÁRA ZRT., priority 2016, dated 2021)
# Where “and” joins values, the source holds several entries; their conditions need not be identical. Identical values can stand only once.
# Experiments:
# [1] = aqueous solution at physiological pH; cited from earlier work
# [2] = Accelerated stability study of lyophilisates at room temperature in closed glass vessels, active ingredient content followed by HPLC; format: physicochemical; conditions: closed glass vessel
# Experimental: We investigated the effect of the sodium hydroxide amount used for the salt formation on the stability of the acid-sensitive epoprostenol Na. For this purpose the excess alkali which may be present in the epoprostenol Na salt was removed with strongly acidic cation exchange DOWEX resin, to the aqueous solution of the salt not containing excess alkali, different amounts of sodium hydroxide were added and the obtained solutions were lyophilized. From the 1% aqueous lyophilisate solutions we measured the pH and started accelerated stability studies at room temperature, in closed glass vessels. The change of the active ingredient content of the stability samples was followed by HPLC after 0, 24, 48 and 144 hours. From the measured active ingredient contents decomposition rates of epoprostenol Na have been calculated (Table 1.).
# [3] = Storage stability in deep-freezer (−20±5° C.), 6-oxo-PGF1alpha impurity content by HPLC; format: physicochemical; conditions: 4-5-6% NaOH excesses compared
# [4] = Storage stability in refrigerator (5±3° C.), 6-oxo-PGF1alpha impurity content by HPLC; format: physicochemical; conditions: for 6-oxo-PGF1alpha content (HPLC): refrigerator (5 ± 3° C.), 4 mass % NaOH excess
# Experimental: Based on these unexpected experimental results we modified our new technology, we dissolved the funnel-wet, crystalline epoprostenol sodium salt in water, to the aqueous solution we added 2M NaOH solution in such an amount that the product, after lyophilisation contains 4 mass % excess of sodium hydroxide. The epoprostenol Na prepared by the new method may be stored in refrigerator (5±3° C.) for at least 6 months (Table 3.).
# [5] = pH of 1% aqueous lyophilisate solution; format: physicochemical
# Experimental: For this purpose the excess alkali which may be present in the epoprostenol Na salt was removed with strongly acidic cation exchange DOWEX resin, to the aqueous solution of the salt not containing excess alkali, different amounts of sodium hydroxide were added and the obtained solutions were lyophilized. From the 1% aqueous lyophilisate solutions we measured the pH and started accelerated stability studies at room temperature, in closed glass vessels.
# [6] = Storage stability in deep-freezer (−20±5° C.), 6-oxo-PGF1alpha impurity content by HPLC; format: physicochemical; conditions: for 6-oxo-PGF1alpha content (HPLC): deep-freezer (−20 ± 5° C.), 4 mass % NaOH excess
# Experimental: Based on these unexpected experimental results we modified our new technology, we dissolved the funnel-wet, crystalline epoprostenol sodium salt in water, to the aqueous solution we added 2M NaOH solution in such an amount that the product, after lyophilisation contains 4 mass % excess of sodium hydroxide. The stability of the epoprostenol Na prepared by this new method is excellent, it can be stored in deep-freezer (−20±5° C.) for at least 3 years.
# [7] = −30° C., white powder; cited from earlier work
compound,measurement,setting,value
CCCCC[C@H](O)/C=C/[C@@H]1[C@H]2C/C(=C/CCCC(=O)O)O[C@H]2C[C@H]1O [prostacyclin],half-life,[1],3 to 4 min
"CCCCC[C@H](O)/C=C/[C@@H]1[C@H]2C/C(=C/CCCC(=O)[O-])O[C@H]2C[C@H]1O.[Na+] [Epoprostenol Na, (5Z,9α,11α,13E,15S)-6,9-Epoxy-11,15-dihydroxyprosta-5,13-dien-1-acid sodium salt]",PGI2Na decomposition,"[2]; 0.25 mass % NaOH added, sodium salt",34.9 %/month and 34.6 %/month
same,PGI2Na decomposition,"[2]; 2.5 mass % NaOH added, sodium salt",10.9 %/month and 10.6 %/month
same,PGI2Na decomposition,[2]; 3.0 mass % NaOH added,8.8 %/month
same,PGI2Na decomposition,[2]; 4.0 mass % NaOH added,4.5 %/month
same,PGI2Na decomposition,[2]; 5.0 mass % NaOH added,1.7 %/month
same,PGI2Na decomposition,[2]; 5.5 mass % NaOH added,1.3 %/month
same,PGI2Na decomposition,[2]; 6.0 mass % NaOH added,1.7 %/month
same,PGI2Na decomposition,[2]; 7.5 mass % NaOH added,3.1 %/month
same,PGI2Na decomposition,[2]; 12.5 mass % NaOH added,3.5 %/month
same,stability in the storage praxis,[3],equally good
same,6-oxo-PGF1alpha content (HPLC),[4]; month 0,0.2 mass %
same,6-oxo-PGF1alpha content (HPLC),[4]; month 1,0.3 mass %
same,6-oxo-PGF1alpha content (HPLC),[4]; month 3,0.4 mass %
same,6-oxo-PGF1alpha content (HPLC),[4]; month 6,0.2 mass %
same,storage time (may be stored),"[4]; refrigerator (5±3° C.), lyophilisate with 4 mass % NaOH excess",at least 6 months
same,pH (1% aqueous solution),"[5]; lyophilisate with 0.25 mass % NaOH added, sodium salt",9.98 and 10.14
same,pH (1% aqueous solution),[5]; lyophilisate with 2.5 mass % NaOH added,11.64
same,pH (1% aqueous solution),[5]; lyophilisate with 3.0 mass % NaOH added,11.70
same,pH (1% aqueous solution),[5]; lyophilisate with 4.0 mass % NaOH added,11.78
same,pH (1% aqueous solution),[5]; lyophilisate with 5.0 mass % NaOH added,11.86
same,pH (1% aqueous solution),[5]; lyophilisate with 5.5 mass % NaOH added,11.90
same,pH (1% aqueous solution),[5]; lyophilisate with 6.0 mass % NaOH added,11.92
same,pH (1% aqueous solution),[5]; lyophilisate with 7.5 mass % NaOH added,12.00
same,pH (1% aqueous solution),[5]; lyophilisate with 12.5 mass % NaOH added,12.15
same,6-oxo-PGF1alpha content (HPLC),[6]; month 0,0.2 mass %
same,6-oxo-PGF1alpha content (HPLC),[6]; month 1,0.2 mass %
same,6-oxo-PGF1alpha content (HPLC),[6]; month 3,0.2 mass %
same,6-oxo-PGF1alpha content (HPLC),[6]; month 6,0.2 mass %
same,6-oxo-PGF1alpha content (HPLC),[6]; month 9,0.2 mass %
same,6-oxo-PGF1alpha content (HPLC),[6]; month 12,0.2 mass %
same,6-oxo-PGF1alpha content (HPLC),[6]; month 18,0.2 mass %
same,6-oxo-PGF1alpha content (HPLC),[6]; month 24,0.2 mass %
same,6-oxo-PGF1alpha content (HPLC),[6]; month 36,0.2 mass %
same,storage time (can be stored),"[6]; deep-freezer (−20±5° C.), lyophilisate with 4 mass % NaOH excess",at least 3 years
same,time lyophilisate remained stable,[7],at least two
